Measurements from patent publication US20020012943A1, “ELECTROCHEMICAL PROBES FOR DETECTION OF MOLECULAR INTERACTIONS AND DRUG DISCOVERY” (priority 1997, published 2002).
Where no end group is shown, it is not given here. The star is where a group is joined. Biotin = O=C1N[C@H]2[C@H](CS[C@H]2CCCCC(=O)*)N1

Columns and labels:
[1] = test system: Tyrosine aminoacyl tRNA synthetase (tyrRS); experiment: Chronoamperometry of SA/B-HRP conjugated surrogate ligand binding to, and inhibitor displacement from, a tyrRS hydrogel electrode
src SH3 domain = target: T1, src SH3 domain (Homo sapiens, UniProt P12931); experiment: Chronoamperometry of SA/B-HRP conjugated surrogate ligand binding to a src SH3 hydrogel electrode; conditions: 100 mV
T1 construct: The src SH3 domain was immobilized in a hydrogel as described above in Section A
Description: The electrochemical analytic methods and apparati of the invention are used to detect protein:peptide interactions in a complex mixture. A variety of different target molecules and purchased from Polysciences (Warrington, Pa.). The redox polymer poly(1-vinylimidazole), modified with Os bipyridine redox centers (PVI-Os) was synthesized as described by Ohara et al. (1993, Anal. Chem. 65: 3512-3517). Specifically, hydrogels were prepared by mixing together 5 μL of each of the following solutions: a solution of a first member of a biological binding pair, typically comprising a receptor protein or fragment at a concentration of 4-6 mg/mL protein; 10 mg/mL PVI-Os, and 2.5 mg/mL PEGDGE. A 1 μL aliquot of the mixture was then spread on the surface of the glassy carbon electrodes. The hydrogel coated electrodes were cured overnight at room temperature prior to use.
The src SH3 domain was immobilized in a hydrogel as described above in Section A. This electrode was then used for electrochemical detection of surrogate ligand binding using a surrogate ligand prepared as follows.
A complex of streptavidin (SA) (Sigma Chemical Co., St. Louis, Mo.), biotinylated horseradish peroxidase (B-HRP) (Sigma) and biotinylated src SH3 surrogate ligand (His-Gly-Ser-Gly-Ser-Phe-Ser-His-Pro-Gln-Asn-Thr; SEQ ID No. 2) was prepared as follows. […]

[2] = target: T2, GST-Src SH3 fusion protein (Homo sapiens, UniProt P12931); experiment: Cyclic voltammetry of electrochemically-labeled peptide binding to a GST-Src SH3 coated electrode; conditions: for specific cyclic voltammetry signal at GST-Src SH3 electrode: electrochemically-labeled peptide plus mediator, described in present tense
T2 construct: made in house
Description: Tin-doped indium oxide electrodes were purchased (Delta Technologies) as 2 cm^2 square glass slides and prepared for use as follows. The electrode was cleaned by sonication treatment in a laboratory sonicator by sequential treatment in Alkonox, neat isopropyl alcohol, distilled and deionized water (three times), and finally the desired buffer; each sonication treatment having been performed for 10 min. The cleaned electrodes were then immersed in a 5 mM solution of 1,12-dodecadicarboxylic acid and incubated at room temperature for 48-72 hours, followed by rinsing the electrodes with hexane (Analytical grade).
(§1) Protein crosslinking to the prepared electrode was then performed as follows. A 50 μL aliquot of a 5 mM solution of 1-(3-dimethylaminopropyl)-3-ethylcarbodiimide was placed on one side of the electrode and dried at room temperature. […] of a 4 mg/mL solution of a fusion protein in phosphate buffered saline (PBS)/0.1% Tween 20 was placed on the surface of the dried electrode previously treated with carbodiimide and incubated at 4° C. overnight to allow crosslinking to proceed. After this incubation, electrodes were washed once with a solution of 100 mM Tris-HCl (pH8.0)/100 mM NaCl for 5 min. and kept in PBS at 4° C. until used.
(§2) Cyclic voltammograms were collected using an EG&G PAR 273A potentiostat/galvanostat with a single compartment voltammetric cell equipped with a modified tin-doped indium oxide (ITO) working electrode (area=0.32 cm^2), platinum (Pt)-wire counter electrode and silver/silver chloride (Ag/AgCl) reference electrode (see Johnston et al, 1994, Inorg. Chem. 33: 6388-6390). An example of such a voltammogram is shown in FIG. 7 and was generated under the following conditions. A sample containing 50 mM Ru(NH3)6^3+ and 20 mM Ru(NH3)5^3+-labeled peptide dissolved in buffered aqueous solutions containing 50 mM sodium phosphate buffer (pH 6.8)/700 mM NaCl (having a total sodium ion concentration of 780 mM) was scanned at a rate of 15 mV/s. After scans with the electrochemically labeled peptide, the electrode was rinsed with the same 50 mM sodium phosphate buffer solution, and then with 50 mM Ru(NH3)6^3+ or an unlabeled peptide solution containing 50 mM Ru(NH3)6^3+. Cyclic voltammograms were obtained with 50 mM Ru(NH3)6^3+ after washing. […] A freshly prepared electrode was used for each experiment and a background scan of buffer alone was collected for each electrode and subtracted from subsequent scans.
The electrochemical analysis apparatus and methods of the invention were used to detect and analyze the specific binding interaction between the Src SH3 domain and a specific binding SH3 peptide as follows. […]

MDM2 = MDM2 (Homo sapiens, UniProt Q00987); experiment: Cyclic voltammetry of electrochemically-labeled peptide binding to an MDM2 coated electrode; conditions: electrochemically-labeled peptide plus mediator; described in present tense
MDM2, sequence (Q00987 whole entry, species assumed): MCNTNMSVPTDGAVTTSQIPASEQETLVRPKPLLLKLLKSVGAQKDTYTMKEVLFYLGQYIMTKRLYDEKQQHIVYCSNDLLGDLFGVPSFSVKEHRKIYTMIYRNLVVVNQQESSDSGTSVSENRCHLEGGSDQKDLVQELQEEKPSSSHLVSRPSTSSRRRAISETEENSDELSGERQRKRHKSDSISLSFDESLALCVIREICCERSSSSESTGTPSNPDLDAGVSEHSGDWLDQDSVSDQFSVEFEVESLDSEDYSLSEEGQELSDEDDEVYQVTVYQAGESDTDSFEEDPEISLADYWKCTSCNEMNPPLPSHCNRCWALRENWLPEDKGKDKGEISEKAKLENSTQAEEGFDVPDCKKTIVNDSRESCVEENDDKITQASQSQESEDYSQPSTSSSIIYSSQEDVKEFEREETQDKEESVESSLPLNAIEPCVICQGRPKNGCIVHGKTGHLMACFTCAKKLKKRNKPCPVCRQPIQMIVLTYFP
Description: as §1
Cyclic voltammograms were collected using an EG&G PAR 273A potentiostat/galvanostat with a single compartment voltammetric cell equipped with a modified tin-doped indium oxide (ITO) working electrode (area=0.32 cm^2), platinum (Pt)-wire counter electrode and silver/silver chloride (Ag/AgCl) reference electrode (see Johnston et al, 1994, Inorg. Chem. 33: 6388-6390). An example of such a voltammogram is shown in FIG. 7 and was generated under the following conditions. A sample containing 50 mM Ru(NH3)6^3+ and 20 mM Ru(NH3)5^3+-labeled peptide dissolved in buffered aqueous solutions containing 50 mM sodium phosphate buffer (pH 6.8)/700 mM NaCl (having a total sodium ion concentration of 780 mM) was scanned at a rate of 15 mV/s. […]

streptavidin = streptavidin (Streptomyces avidinii, UniProt P22629); experiment: Cyclic voltammetry of electrochemically-labeled peptide binding to a streptavidin coated electrode; conditions: electrochemically-labeled peptide plus mediator; described in present tense
streptavidin, sequence (P22629 25-183): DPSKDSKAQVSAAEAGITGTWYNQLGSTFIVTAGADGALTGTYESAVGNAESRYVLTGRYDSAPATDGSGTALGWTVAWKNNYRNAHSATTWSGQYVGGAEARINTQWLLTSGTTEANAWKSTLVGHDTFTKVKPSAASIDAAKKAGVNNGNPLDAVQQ
Description: as §1, §2
Electrodes are prepared by coating with the GST-Src SH3 fusion protein described above or with streptavidin using the procedures described in Example 2. […]

| Substance | specific cyclic voltammetry signal at GST-Src SH3 electrode [2] | specific cyclic voltammetry signal at streptavidin electrode (streptavidin) | other results |
| --- | --- | --- | --- |
| LYSWPDEQYERPSGSGK [tyrRS surrogate ligand] | – | – | binding rate constant (first order) for the tyrRS-surrogate ligand binding reaction ([1]; from the single-exponential current rise of FIG. 9): 0.0012 s⁻¹; current upon addition of SA/B-HRP conjugated surrogate ligand ([1]; tyrRS hydrogel electrode, conditions as for src SH3 (FIG. 9)): current was detected |
| HGSGSFSHPQNT [src SH3 surrogate ligand] | – | – | time at which current reaches plateau (src SH3 domain; 100 μM H2O2, ligand added at t=600 sec (FIG. 8)): 1500 to 2000 s; current upon addition of SA/B-HRP conjugated surrogate ligand (src SH3 domain; 100 μM H2O2, ligand added at t=600 sec to 1 μg/mL SA (FIG. 8)): an increase in current was detected |
| Biotin-HHSGSGSQTFSDLWKL [p53 peptide] | No specific interaction is detected | No specific interaction is detected | specific cyclic voltammetry signal at MDM2 electrode (MDM2): Specific signals are detected |
| Gly-His-Gly-Ser-Gly-Arg-Ala-Leu-Pro-Pro-Leu-Pro-Arg-Tyr-NH2 (GHGSGRALPPLPRY-NH2) [NPDF-1] | Specific signals are detected | no specific signal is detected | integrated cyclic voltammetry signal, mediator background subtracted ([2]; GST-Src SH3 coated electrode compared with GST alone, Ru-labeled peptide, hexaamineruthenium(III) mediator, 2 hours incubation): much higher signal |
| HGSGSFSHPQNT [streptavidin binding peptide] | no specific signal is detected | Specific signals are detected | – |
